In patent publication US9452980B2, “Substituted benzamides” (Hoffmann-La Roche Inc., priority 2009, dated 2016):
Where a name gives a salt, the structure may show the parent alone. Read-outs that look alike come from different tables or passages of the source.

Columns and labels:
mouse TAAR1 = mouse TAAR1 (Mus musculus (Mouse), UniProt Q923Y8); assay: Radioligand binding assay on mouse TAAR1
Outline: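 Displacement of the tritiated oxazol-2-ylamine radioligand was measured by filtration and scintillation counting after 1 h incubation at 4 °C. Test concentrations ran 10 pM–10 μM in duplicate, with 10 μM cold ligand giving nonspecific binding. The receptor source was membranes of a stable mouse TAAR1 HEK293 line.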

rat TAAR1 = rat TAAR1 (Rattus norvegicus (Rat), UniProt Q923Y9); assay: Radioligand binding assay on rat TAAR1
Outline: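 Membranes from HEK293 cells stably expressing rat TAAR1, with Kd checked per batch by saturation. Competition with ³H-(S)-4-[(ethyl-phenyl-amino)-methyl]-4,5-dihydro-oxazol-2-ylamine, compounds 10 pM–10 μM in duplicate, 1 hr at 4 °C. Filtration then scintillation counting; nonspecific binding defined with 10 μM unlabeled ligand.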

[1] = rat TAAR1, HEK-293 membranes, second value of cell mouse/rat, read-out: Ki (μM) rat
[2] = mouse TAAR1, HEK-293 membranes, first value of cell mouse/rat, read-out: Ki (μM) mouse

mouse TAAR1, sequence (Q923Y8 whole entry): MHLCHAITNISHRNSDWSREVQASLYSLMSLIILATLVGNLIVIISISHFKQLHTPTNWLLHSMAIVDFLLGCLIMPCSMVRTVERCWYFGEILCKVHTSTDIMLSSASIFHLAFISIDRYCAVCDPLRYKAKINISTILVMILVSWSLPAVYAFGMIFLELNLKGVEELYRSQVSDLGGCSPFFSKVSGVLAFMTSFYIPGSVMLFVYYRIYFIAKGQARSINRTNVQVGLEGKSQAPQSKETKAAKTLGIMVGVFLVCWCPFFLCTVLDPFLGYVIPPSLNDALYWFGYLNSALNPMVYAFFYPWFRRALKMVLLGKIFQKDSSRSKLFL
rat TAAR1, sequence (Q923Y9 whole entry): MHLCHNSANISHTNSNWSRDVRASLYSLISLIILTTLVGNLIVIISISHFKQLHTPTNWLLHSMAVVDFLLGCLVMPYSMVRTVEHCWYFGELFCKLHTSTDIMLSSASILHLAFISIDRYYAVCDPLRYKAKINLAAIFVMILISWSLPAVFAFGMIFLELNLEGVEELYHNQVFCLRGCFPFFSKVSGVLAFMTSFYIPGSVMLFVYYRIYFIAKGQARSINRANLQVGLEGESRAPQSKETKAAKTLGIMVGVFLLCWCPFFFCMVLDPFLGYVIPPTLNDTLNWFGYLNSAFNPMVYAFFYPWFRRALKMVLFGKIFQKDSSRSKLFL

| SMILES | Ki (rat TAAR1; [1]) [µM] | Ki (mouse TAAR1; [2]) [µM] | further results |
| --- | --- | --- | --- |
| O=C(Nc1ccc([C@H]2CCCNC2)cc1)c1ccc(C(F)(F)F)nc1 [Example 265, (R)—N-(4-(Piperidin-3-yl)phenyl)-6-(trifluoromethyl)nicotinamide hydrochloride] |  |  | Ki (mouse TAAR1; read-out: Ki (μM) mouse): 0.0209 µM; Ki (rat TAAR1; read-out: Ki (μM) rat): 0.0059 µM |
| O=C(Nc1ccc(C2CNCCO2)cc1)c1ccc(OCC2CC2)cc1 (racemic) [Example 214, (RS)-4-Cyclopropylmethoxy-N-(4-morpholin-2-yl-phenyl)-benzamide hydrochloride] | 0.0016 |  | Ki (mouse TAAR1; read-out: Ki (μM) mouse): 0.0057 µM |
| O=C(Nc1ccc([C@@H]2CCCNC2)cc1)c1ccc(Cl)cn1 [Example 168, (S)-5-Chloro-N-(4-(piperidin-3-yl)phenyl)picolinamide hydrochloride] | 0.0026 |  | Ki (mouse TAAR1; read-out: Ki (μM) mouse): 0.608 µM |
| O=C(Nc1ccc(C2CCNC2)cc1)c1cccc(Cl)c1 (racemic) [Example 20, (RS)-3-Chloro-N-(4-pyrrolidin-3-yl-phenyl)-benzamide hydrochloride] | 0.0077 | 0.0005 |  |
| O=C(Nc1ccc(C2CNCCO2)cc1)Nc1ccccc1Cl (racemic) [Example 305, (RS)-1-(2-Chlorophenyl)-3-(4-(morpholin-2-yl)phenyl)urea hydrochloride] |  | 0.0266 | Ki (rat TAAR1; read-out: Ki (μM) rat): 0.0038 µM |
| O=C(Nc1ccc([C@@H]2CNCCO2)cc1)c1ccc(C(F)(F)F)nc1 [Example 283, (R)—N-(4-(Morpholin-2-yl)phenyl)-6-(trifluoromethyl)nicotinamide hydrochloride] |  | 0.006 | Ki (rat TAAR1; read-out: Ki (μM) rat): 0.0059 µM |
| O=C(Nc1ccc(C2CCNC2)cc1)Oc1ccc(Cl)cc1 (racemic) [Example 23, (RS)-(4-Pyrrolidin-3-yl-phenyl)-carbamic acid 4-chloro-phenyl ester hydrochloride] |  |  | Ki (mouse TAAR1): 0.0022 µM; Ki (rat TAAR1): 0.0025 µM |
| O=C(Nc1ccc(C2CCCNC2)cc1)c1ccc(Cl)c(Cl)c1 (racemic) [Example 96, (RS)-3,4-Dichloro-N-(4-piperidin-3-yl-phenyl)-benzamide hydrochloride] | 0.0067 | 0.0016 |  |
| O=C(Nc1ccc(C2CNCCO2)cc1)c1ccccc1 (racemic) [Example 188, (RS)—N-(4-(Morpholin-2-yl)phenyl)benzamide hydrochloride] |  | 0.138 | Ki (rat TAAR1; read-out: Ki (μM) rat): 0.0055 µM |
| O=C(Nc1ccc(CCC2CCCCN2)cc1)c1ccc(C(F)(F)F)cc1 (racemic) [Example 175, (RS)—N-(4-(2-(Piperidin-2-yl)ethyl)phenyl)-4-(trifluoromethyl)benzamide hydrochloride] | 0.0027 | 0.0473 |  |
| O=C(Nc1ccc(C2CCN(Cc3ccccc3)C2)cc1)c1ccc(Cl)cc1 (racemic) [Example 34, (RS)—N-[4-(1-Benzyl-pyrrolidin-3-yl)-phenyl]-4-chloro-benzamide] | 0.214 | 0.0269 |  |
| O=C(Nc1ccc(C2CNCCO2)cc1)c1ccc(Oc2ccc(C(=O)O)c(Cl)c2)cc1 (racemic) [Example 215, (RS)-2-Chloro-4-(4-(4-(morpholin-2-yl)phenylcarbamoyl)phenoxy)benzoic acid hydrochloride] | 2.31 | 2.82 |  |
| O=C(Nc1ccc([C@@H]2CCCNC2)cc1)c1ccc(Cl)c(Cl)c1 [Example 152, 3,4-Dichloro-N—((S)-4-piperidin-3-yl-phenyl)-benzamide hydrochloride] | 0.0003 |  | Ki (mouse TAAR1; read-out: Ki (μM) mouse): 0.0086 µM |
| CSc1ccc(C(=O)Nc2ccc([C@@H]3CCCNC3)cc2)cn1 [Example 244, (S)-6-(Methylthio)-N-(4-(piperidin-3-yl)phenyl)nicotinamide hydrochloride] | 0.0049 |  | Ki (mouse TAAR1; read-out: Ki (μM) mouse): 0.268 µM |
| COC(=O)c1ccc(COc2ccc(C(=O)Nc3ccc(C4CNCCO4)cc3)cc2)cc1 (racemic) [Example 211, (RS)-Methyl 4-((4-(4-(morpholin-2-yl)phenylcarbamoyl)phenoxy)methyl)benzoate hydrochloride] | 0.0009 | 0.004 |  |
| O=C(Nc1ccc(C2CCNC2)cc1)c1ccc(C(F)(F)F)cn1 (racemic) [Example 139, (RS)-5-Trifluoromethyl-pyridine-2-carboxylic acid (4-pyrrolidin-3-yl-phenyl)-amide hydrochloride] | 0.0051 | 0.0158 |  |
| O=C(Nc1ccc(C2CCCNC2)cc1)c1ccc(Cl)cc1Cl (racemic) [Example 99, (RS)-2,4-Dichloro-N-(4-piperidin-3-yl-phenyl)-benzamide hydrochloride] | 0.0501 | 0.013 |  |
| COc1ccc(C(=O)Nc2ccc(C3CCNC3)cc2)nc1 (racemic) [Example 94, (RS)-5-Methoxy-pyridine-2-carboxylic acid (4-pyrrolidin-3-yl-phenyl)-amide hydrochloride] | 0.379 |  | Ki (mouse TAAR1; read-out: Ki (μM) mouse): 0.0601 µM |

Second part, led by results:

| Ki (rat TAAR1; [1]) [µM] | Ki (mouse TAAR1; [2]) [µM] | SMILES | further results |
| --- | --- | --- | --- |
| 0.0077 | 0.113 | CCOc1ccc(C(=O)Nc2ccc(CCC3CCCN3)cc2)nc1 (racemic) [Example 172, (RS)-5-Ethoxy-N-(4-(2-(pyrrolidin-2-yl)ethyl)phenyl)picolinamide hydrochloride] |  |
| 0.0011 | 0.0003 | O=C(Nc1ccc(C2CCNC2)cc1)OCCc1ccc(C(F)(F)F)cc1 (racemic) [Example 122, (RS)-(4-Pyrrolidin-3-yl-phenyl)-carbamic acid 2-(4-trifluoromethyl-phenyl)-ethyl ester] |  |
| 0.0044 | 0.0783 | O=C(Nc1ccc([C@@H]2CCCNC2)cc1)c1ccc(Br)nc1 [Example 252, (S)-6-Bromo-N-(4-(piperidin-3-yl)phenyl)nicotinamide 2,2,2-trifluoroacetate] |  |
| 0.0305 | 0.0778 | O=C(Nc1ccc(C2CNCCO2)cc1)NC1CCCCC1 (racemic) [Example 307, (RS)-1-cyclohexyl-3-(4-(morpholin-2-yl)phenyl)urea hydrochloride] |  |
| 0.0024 | 0.0025 | O=C(Nc1ccc(C2CNCCO2)cc1)c1coc(-c2ccccc2)n1 (racemic) [Example 249, (RS)—N-(4-(Morpholin-2-yl)phenyl)-2-phenyloxazole-4-carboxamide hydrochloride] |  |
| 0.322 | 0.0385 | COc1ccc(C(=O)Nc2ccc(C3CCNC3)cc2)c(OC)n1 (racemic) [Example 95, (RS)-2,6-Dimethoxy-N-(4-pyrrolidin-3-yl-phenyl)-nicotinamide] |  |
| 0.0074 | 0.0836 | O=C(Nc1ccc(CCC2CCNC2)cc1)Nc1ccc(Cl)cn1 (racemic) [Example 114, (RS)-1-(5-Chloro-pyridin-2-yl)-3-[4-(2-pyrrolidin-3-yl-ethyl)-phenyl]-urea hydrochloride] |  |
| 0.001 | 0.0524 | Cc1ccc(C(=O)Nc2ccc([C@H]3CNCCO3)cc2)cc1 [Example 196, (S)-4-Methyl-N-(4-(morpholin-2-yl)phenyl)benzamide hydrochloride] |  |
| 0.0077 | 0.0131 | O=C(Nc1ccc(C2CCNC2)cc1)OC1CCC(F)(F)CC1 (racemic) [Example 45, (RS)-(4-Pyrrolidin-3-yl-phenyl)-carbamic acid 4,4-difluoro-cyclohexyl ester] |  |
| 0.023 | 0.0048 | O=C(Nc1ccc([C@@H]2CNC[C@@H]2F)cc1)c1ccc(Cl)cc1 (racemic) [Example 69, 4-Chloro-N-[4-((3RS,4RS)-4-fluoro-pyrrolidin-3-yl)-phenyl]-benzamide hydrochloride] |  |
| 0.0008 | 0.0677 | CCSc1ccc(C(=O)Nc2ccc([C@@H]3CCCNC3)cc2)cc1 [Example 237, (S)-4-(Ethylthio)-N-(4-(piperidin-3-yl)phenyl)benzamide hydrochloride] |  |
| 0.0063 | 0.0649 | CCOc1ccc(C(=O)Nc2ccc(C3CNCCO3)cc2)cn1 (racemic) [Example 245, (RS)-6-Ethoxy-N-(4-(morpholin-2-yl)phenyl)nicotinamide hydrochloride] |  |
| 0.0005 | 0.002 | O=C(Nc1ccc(C2CNCCO2)cc1)Nc1cccc(Cl)c1 (racemic) [Example 303, (RS)-1-(3-Chlorophenyl)-3-(4-(morpholin-2-yl)phenyl)urea hydrochloride] |  |
| 0.0013 | 0.0004 | O=C(Nc1ccc(C2CCNC2)cc1)OCCc1ccc(Cl)cc1 (racemic) [Example 120, (RS)-(4-Pyrrolidin-3-yl-phenyl)-carbamic acid 2-(4-chloro-phenyl)-ethyl ester] |  |
| 0.0941 | 0.335 | Cc1nc(C(=O)Nc2ccc(C3CNCCO3)cc2)cs1 (racemic) [Example 217, (RS)-2-Methyl-N-(4-(morpholin-2-yl)phenyl)thiazole-4-carboxamide hydrochloride] |  |
| 0.0038 | 0.0266 | Cc1ccc(CNC(=O)Nc2ccc(C3CNCCO3)cc2)cc1 (racemic) [Example 306, (RS)-1-(4-Methylbenzyl)-3-(4-(morpholin-2-yl)phenyl)urea hydrochloride] |  |
| 0.0003 | 0.0003 | O=C(Nc1ccc(C2CCNC2)cc1)OCCCc1ccc(Cl)cc1 (racemic) [Example 128, (RS)-(4-Pyrrolidin-3-yl-phenyl)-carbamic acid 3-(4-chloro-phenyl)-propyl ester] |  |
| 0.0101 | 0.0192 | COc1cc(C(=O)Nc2ccc(C3CCNC3)cc2)nc2ccccc12 (racemic) [Example 90, (RS)-4-Methoxy-quinoline-2-carboxylic acid (4-pyrrolidin-3-yl-phenyl)-amide hydrochloride] |  |
| 0.0354 | 0.0033 | O=C(Nc1ccc(C2CCNC2)cc1)c1ccc(Cl)cn1 (racemic) [Example 42, (RS)-5-Chloro-pyridine-2-carboxylic acid (4-pyrrolidin-3-yl-phenyl)-amide hydrochloride] |  |
